Laboratory results taken from US12291508B2, “Hydrazide containing nuclear transport modulators and uses thereof” (Karyopharm Therapeutics Inc., priority 2011, dated 2025).
Where a name gives a salt, the structure may show the parent alone.

What was measured:
[1] = system: MDA-MB-231 cells; experiment: Long-term growth assay, MDA-MB-231; assay type: cell-based; conditions: MDA-MB-231, 1 μM, 10 days, crystal violet
Description: (§1) At the end of the assay, media was removed from the cells and the remaining cells were stained with crystal violet.

[2] = system: BT-20; experiment: Cell proliferation assay, BT-20; assay type: cell-based; conditions: Homo sapiens; BT-20, type BaA, 72 h
Procedure: (§2) The cells were seeded at 5×10^3 to 1.5×10^4 cells (depending on cell type) in each well of a 96-well plate in 100 μL of fresh culture medium and adherent cells were allowed to attach overnight. The stock solutions of the compounds were diluted in cell culture medium to obtain eight concentrations of each drug, ranging from 1 nM to 30 μM and DMSO at less than 1% v/v was used as a negative control. The resulting drug solutions were transferred onto the cells. After 72 h of treatment, 20 μl of CellTiter 96® AQueous reagent was added into each well of the 96-well assay plates and the plate was incubated at 37° C. for 1-4 hours in a humidified, 5% CO2 atmosphere. Then the absorbance of each well was recorded at 490 nm using a 96-well plate reader. In most cases, the assay was performed in triplicate and the results were presented as half maximal inhibitory concentration (IC50).

[3] = system: HS578T TNBC cells; experiment: Apoptosis marker immunoblot, HS578T; assay type: cell-based; conditions: 0 to 10 μM, 24 hours
Procedure: (§3) MDA-MB-468 TNBC, DU4475 and HS578T TNBC cells were exposed to concentrations of Compound 1-3 ranging from 0 to 10 μM for 24 hours. After 24 hours, whole protein cell extracts were run on immunoblots and were exposed to antibodies against the proteins indicated in FIGS. 2A-2C.

[4] = system: HS578T cells; experiment: Long-term growth assay, HS578T; assay type: cell-based; conditions: 1 μM, 7 days, crystal violet
Description: as §1

[5] = system: DU4475; experiment: Cell proliferation assay, DU4475; assay type: cell-based; conditions: Homo sapiens, DU-4475; DU4475, type Lu, 72 h
Procedure: as §2

[6] = system: MDA-MB-468 TNBC cells; experiment: Apoptosis marker immunoblot, MDA-MB-468; assay type: cell-based; conditions: MDA-MB-468, 0 to 10 μM, 24 hours
Procedure: as §3

[7] = system: MDA-MB-231; experiment: Cell proliferation assay, MDA-MB-231; assay type: cell-based; conditions: Homo sapiens; MDA-MB-231, type BaB, 72 h
Procedure: as §2

[8] = system: HCC-202; experiment: Cell proliferation assay, HCC-202; assay type: cell-based; conditions: HCC202; HCC-202, type Lu/HER+, 72 h
Procedure: as §2

[9] = system: MM.1S multiple myeloma cell line; experiment: CellTiter 96 AQueous One Solution cell proliferation assay, MM.1S; assay type: cell-based; conditions: Homo sapiens, MM1.S, 72 h of treatment, read-out: Cytotoxicity Assay
Description: The CellTiter 96® AQueous One Solution cell proliferation assay (Promega) was used on MM.1S multiple myeloma cell line to study the cytotoxic and cytostatic properties of the compounds. The assay is based on the cleavage of the tetrazolium salt, MTS, in the presence of an electron-coupling reagent PES (phenazine ethosulfate). The MTS tetrazolium compound is bioreduced by cells into a colored formazan product that is soluble in tissue culture medium. This conversion is presumably accomplished by NADPH or NADH produced by dehydrogenase enzymes in metabolically active cells. Assays are performed by adding a small amount of the CellTiter 96® AQueous One solution reagent directly to culture wells, incubating for 1-4 hours and then recording the absorbance at 490 nm with a 96-well plate reader.
as §2, with “cells” for “cells (depending on cell type)”, “(IC50). Optical density versus compound concentration was plotted and analyzed using non-linear regression equations (IDBS XLfit) and the IC50 for each compound was calculated.” for “(IC50).”

[10] = target: T1, CRM1-mediated nuclear export (Homo sapiens, UniProt O14980); experiment: RevGFP assay, inhibition of nuclear export; assay type: cell-based; conditions: U2OS-RevGFP cells, about 1 hr incubation; read-out: Rev Export
T1 construct: endogenous in cells; host or cells: U2OS-RevGFP cells
T1 sequence (O14980 whole entry): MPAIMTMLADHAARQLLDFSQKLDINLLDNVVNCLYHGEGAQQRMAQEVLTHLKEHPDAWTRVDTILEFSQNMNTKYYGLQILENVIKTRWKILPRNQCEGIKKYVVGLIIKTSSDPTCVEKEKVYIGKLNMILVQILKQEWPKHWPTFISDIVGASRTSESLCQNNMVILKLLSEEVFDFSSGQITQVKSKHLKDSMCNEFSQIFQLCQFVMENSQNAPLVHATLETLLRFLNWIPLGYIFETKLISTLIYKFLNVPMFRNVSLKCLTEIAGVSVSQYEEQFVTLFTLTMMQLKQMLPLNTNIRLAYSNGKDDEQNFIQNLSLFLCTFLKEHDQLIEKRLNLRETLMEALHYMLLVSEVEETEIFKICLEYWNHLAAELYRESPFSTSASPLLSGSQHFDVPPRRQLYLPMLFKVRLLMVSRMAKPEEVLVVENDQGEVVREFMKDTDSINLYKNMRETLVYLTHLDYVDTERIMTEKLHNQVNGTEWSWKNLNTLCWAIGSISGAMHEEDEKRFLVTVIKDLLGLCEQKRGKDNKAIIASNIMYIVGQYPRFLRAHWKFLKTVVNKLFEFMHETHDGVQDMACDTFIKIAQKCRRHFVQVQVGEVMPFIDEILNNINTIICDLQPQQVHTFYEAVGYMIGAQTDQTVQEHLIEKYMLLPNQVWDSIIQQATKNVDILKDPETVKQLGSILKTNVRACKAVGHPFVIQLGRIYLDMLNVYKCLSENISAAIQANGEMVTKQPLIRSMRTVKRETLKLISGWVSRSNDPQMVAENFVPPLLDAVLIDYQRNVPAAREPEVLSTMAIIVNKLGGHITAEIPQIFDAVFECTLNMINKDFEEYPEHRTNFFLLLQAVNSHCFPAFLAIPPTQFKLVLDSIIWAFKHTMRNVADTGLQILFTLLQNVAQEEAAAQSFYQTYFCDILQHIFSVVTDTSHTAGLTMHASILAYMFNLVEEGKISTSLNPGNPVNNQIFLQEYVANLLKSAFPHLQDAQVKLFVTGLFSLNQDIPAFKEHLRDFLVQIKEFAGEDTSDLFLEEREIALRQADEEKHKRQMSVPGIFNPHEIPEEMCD
Procedure: The ability of exemplary compounds of the invention to inhibit CRM1-mediated nuclear export was assessed in a RevGFP assay. Rev is a protein from human immunodeficiency virus type 1 (HIV-1) and contains a nuclear export signal (NES) in its C-terminal domain and a nuclear localization signal (NLS) in its N-terminal domain. Nuclear export of Rev protein is dependent on the classical NES/CRM1 pathway (Neville et al. 1997).
In this assay, U2OS-RevGFP cells were seeded onto clear-bottomed, black, 384-well plates the day before the experiment. Compounds were serially diluted 1:2 in DMEM, starting from 40 μM in a separate, 384-well plate, and then transferred onto the cells. The cells were incubated with compound for about 1 hr before fixation with 3.7% formaldehyde and nuclei staining with Hoechst 33258. The amount of GFP in cell nuclei was measured and the IC50 of each compound was determined (Kau et al. 2003).

[11] = system: obese (fa/fa) Zucker rats; assay type: in vivo
Procedure: Male Zucker (fa/fa) rats and male Zucker lean rats (both from Charles River) at 10 weeks of age—a timepoint at which the Zucker fa/fa rats should show elevated food intake, body mass and elevated plasma lipid profile relative to their “lean” counterparts were singly housed in plastic bottomed cages and were given 14 days of habituation. During this period, animal body weight, food and water intakes were recorded daily. All animals were given ad-lib access to standard lab chow and water throughout the study. Once the 14 day baseline intake data were collected, the Zucker obese rats were assigned into treatment groups based on equivalent baseline data, i.e. all Zucker obese rats had equivalent daily food/water intakes and body weights. During this phase the rats also received two vehicle administrations as familiarisation to the dosing procedure. Immediately after the baseline phase, the treatment phase commenced. Test article and vehicle were administered at approximately 1 h prior to onset of the dark cycle. Dose scheduling varied according to group: 5× weekly dosing was Monday-Friday The study design was the following: Group A=Zucker lean male rats, vehicle treatment 5× week, oral, n=6, Group B=Zucker obese male rats, vehicle treatment 5× week, oral, n=6, Group C=Zucker obese male rats, I-4 2.5 mg/kg 5× week, oral, n=6.
Daily body weight, food and water intake were measured at approximately the same time of the day. At day −1 and day 7 of treatment phase.

SMILES	long-term growth [1]	IC50 [2] [nM]	apoptosis (cleaved PARP, cleaved caspase 3) [3]	long-term growth [4]	IC50 [5] [nM]	apoptosis (PARP, caspase 3, cleaved PARP, cleaved caspase 3) [6]	IC50 [7] [nM]	IC50 [8] [nM]	IC50 [9] [nM]	IC50 [10] [nM]	mean and cumulative food intake ([11]; 2.5 mg/kg 5× weekly, oral, obese (fa/fa) Zucker rats)	body weight gain ([11]; 2.5 mg/kg 5× weekly, oral, compared to Zucker fa/fa controls)	body weight gain after washout ([11]; 2 day washout phase, compared to Zucker fa/fa controls)
O=C(/C=C\n1cnc(-c2cc(C(F)(F)F)cc(C(F)(F)F)c2)n1)NNc1cnccn1 [Compound I-3, (Z)-3-(3-(3,5-bis(trifluoromethyl)phenyl)-1H-1,2,4-triazol-1-yl)-N′-(pyrazin-2-yl)acrylohydrazide]	inhibited the long-term growth	1500	only a negligible increase in cleaved PARP and cleaved caspase 3	inhibited the long-term growth	13	induces apoptosis	10	5200	≤ 1000				
O=C(/C=C\n1cnc(-c2cc(C(F)(F)F)cc(C(F)(F)F)c2)n1)NNc1ccccn1 [Compound I-4, (Z)-3-(3-(3,5-bis(trifluoromethyl)phenyl)-1H-1,2,4-triazol-1-yl)-N′-(pyridin-2-yl)acrylohydrazide hydrochloride]									≤ 1000	≤ 1000	reduced mean and cumulative food intake	significantly reduced weight gain	body weight gain still reduced
